In patent US20260070945A1, “MACROCYCLIC IMMUNOMODULATORS” (Bristol-Myers Squibb Company, priority 2022, published 2026):
pIC50: −log10 of the molar value. Where a SMILES comes first, the peptide text is derived from it. Bridges are numbered along the chain shown (N, C = ends). [ ]: non-standard residue; d: D form. The star is where a group is joined. ξ: configuration not given here. Phe(4-COOH) = N[C@@H](Cc1ccc(C(=O)O)cc1)C(=O)O; Bip = N[C@@H](Cc1ccc(-c2ccccc2)cc1)C(=O)O; Phe(3-Me) = Cc1cccc(C[C@H](N)C(=O)O)c1; NMeR = CN[C@@H](CCCNC(=N)N)C(=O)O; NMeE = CN[C@@H](CCC(=O)O)C(=O)O; Cha = N[C@@H](CC1CCCCC1)C(=O)O; Cit = NC(=O)NCCC[C@H](N)C(=O)O; NMeN = CN[C@@H](CC(N)=O)C(=O)O; Thr(3ξ) = CC(O)[C@H](N)C(=O)O; Carboxymethyl = O=C(O)C*; NMeA = CN[C@@H](C)C(=O)O; Aun = NCCCCCCCCCCC(=O)O; Dab = NCC[C@H](N)C(=O)O; AEEA = NCCOCCOCC(=O)O; Sar = CNCC(=O)O

Each molecule was assayed against T1, PD-1/PD-L1 interaction (PE-labeled human PD-L1-Ig binding to Jurkat cell line over-expressing human PD-1) (Homo sapiens, UniProt Q15116) (assay: Jurkat-PD-1 Cell Binding High-Content Screening Assay (CBA)). Conditions: Jurkat-hPD-1 cells, PE-labeled PD-L1-Ig 20 nM final; read-out: Jurkat HPD1 PDL1 IC50.
T1 construct: expressed in transfected cells; host or cells: Jurkat
In short: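 Binding of 20 nM (final) PE-tagged PD-L1-Ig to compound-pretreated Jurkat-hPD-1 cells was measured by high-content imaging after 1 h. Pretreatment ran 2 h at 37 °C in DMEM with 10% fetal calf serum.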

T1 sequence (Q15116 25-288): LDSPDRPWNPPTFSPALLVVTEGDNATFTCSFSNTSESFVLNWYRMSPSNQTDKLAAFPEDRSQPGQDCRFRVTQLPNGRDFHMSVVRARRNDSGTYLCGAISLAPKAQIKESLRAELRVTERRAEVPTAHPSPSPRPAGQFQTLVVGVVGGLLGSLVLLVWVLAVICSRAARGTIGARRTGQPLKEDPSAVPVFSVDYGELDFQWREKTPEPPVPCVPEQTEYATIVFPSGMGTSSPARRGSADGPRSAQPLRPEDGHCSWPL

Point of comparison: `Cc1cccc(C[C@@H]2NC(=O)[C@H](CC(=O)O)NC(=O)[C@H](Cc3ccc(OCC(=O)O)cc3)NC(=O)[C@H](C(C)O)NC(=O)CSC[C@@H](C(=O)N(C)[C@@H](CCC(=O)O)C(=O)NCCCCCCCCCCC(=O)O)NC(=O)[C@H](CO)NC(=O)[C@H](C(C)C)NC(=O)[C@H](CC3CCCCC3)NC(=O)[C@H](CCN)NC(=O)[C@@H](CC(C)C)NC(=O)[C@H](C)N(C)C(=O)[C@H](C(C)C)NC(=O)[C@H](Cc3ccc(-c4ccccc4)cc3)NC(=O)[C@H](C(C)C)NC2=O)c1` (stereo partly drawn) [Example 2299] ({CH2CO}-[Thr(3ξ)]Y(Carboxymethyl)D[Phe(3-Me)]V[Bip]V[NMeA][dL][Dab][Cha]VSC[NMeE][Aun]-OH; thioether N-14), pIC50 6.89. Against it:
- CC(=O)NCCCC[C@@H]1NC(=O)[C@H](CC2CCCCC2)NC(=O)[C@H](CCN)NC(=O)[C@@H](CC(C)C)NC(=O)[C@H](C)N(C)C(=O)[C@H](C(C)C)NC(=O)[C@H](Cc2ccc(-c3ccccc3)cc2)NC(=O)[C@H](C(C)C)NC(=O)[C@H](Cc2cccc(C)c2)NC(=O)[C@H](CC(=O)O)NC(=O)[C@H](Cc2ccc(OCC(=O)O)cc2)NC(=O)[C@H](C(C)O)NC(=O)CSC[C@@H](C(=O)N[C@@H](CCN)C(=O)NCCCCCCCCCCC(=O)O)NC(=O)[C@H](CO)NC1=O (stereo partly drawn) [Example 2300] ({CH2CO}-[Thr(3ξ)]Y(Carboxymethyl)D[Phe(3-Me)]V[Bip]V[NMeA][dL][Dab][Cha]K(Ac)SC[Dab][Aun]-OH; thioether N-14) — 0.92 log units higher, 7.81
- Cc1cccc(C[C@@H]2NC(=O)[C@H](CC(=O)O)NC(=O)[C@H](Cc3ccc(OCC(=O)O)cc3)NC(=O)[C@H](C(C)O)NC(=O)CSC[C@@H](C(=O)N(C)[C@@H](CCCNC(=N)N)C(=O)NCCCCCCCCCCC(=O)O)NC(=O)[C@H](CO)NC(=O)[C@H](C(C)C)NC(=O)[C@H](CC3CCCCC3)NC(=O)[C@H](CCN)NC(=O)[C@@H](CC(C)C)NC(=O)[C@H](C)N(C)C(=O)[C@H](C(C)C)NC(=O)[C@H](Cc3ccc(-c4ccccc4)cc3)NC(=O)[C@H](C(C)C)NC2=O)c1 (stereo partly drawn) [Example 2301] ({CH2CO}-[Thr(3ξ)]Y(Carboxymethyl)D[Phe(3-Me)]V[Bip]V[NMeA][dL][Dab][Cha]VSC[NMeR][Aun]-OH; thioether N-14) — within 0.2 log units, 6.82
- Cc1cccc(C[C@@H]2NC(=O)[C@H](CC(=O)O)NC(=O)[C@H](Cc3ccc(OCC(=O)O)cc3)NC(=O)[C@H](C(C)O)NC(=O)CSC[C@@H](C(=O)N(C)[C@@H](CC(N)=O)C(=O)NCCCCCCCCCCC(=O)O)NC(=O)[C@H](CO)NC(=O)[C@H](C(C)C)NC(=O)[C@H](CC3CCCCC3)NC(=O)[C@H](CCN)NC(=O)[C@@H](CC(C)C)NC(=O)[C@H](C)N(C)C(=O)[C@H](C(C)C)NC(=O)[C@H](Cc3ccc(-c4ccccc4)cc3)NC(=O)[C@H](C(C)C)NC2=O)c1 (stereo partly drawn) [Example 2302] ({CH2CO}-[Thr(3ξ)]Y(Carboxymethyl)D[Phe(3-Me)]V[Bip]V[NMeA][dL][Dab][Cha]VSC[NMeN][Aun]-OH; thioether N-14) — 0.66 log units higher, 7.55
- Cc1cccc(C[C@@H]2NC(=O)[C@H](CC(=O)O)NC(=O)[C@H](Cc3ccc(OCC(=O)O)cc3)NC(=O)[C@H](C(C)O)NC(=O)CSC[C@@H](C(=O)N[C@@H](CCN)C(=O)NCCCCCCCCCCC(=O)O)NC(=O)[C@H](C(C)O)NC(=O)[C@H](C(C)C)NC(=O)[C@H](CC3CCCCC3)NC(=O)[C@H](CCN)NC(=O)[C@@H](CC(C)C)NC(=O)[C@H](C)N(C)C(=O)[C@H](CCC(=O)O)NC(=O)[C@H](Cc3ccc(-c4ccccc4)cc3)NC(=O)[C@H](CCC(=O)O)NC2=O)c1 (stereo partly drawn) [Example 2303] ({CH2CO}-[Thr(3ξ)]Y(Carboxymethyl)D[Phe(3-Me)]E[Bip]E[NMeA][dL][Dab][Cha]V[Thr(3ξ)]C[Dab][Aun]-OH; thioether N-14) — 0.45 log units higher, 7.34
- CC(=O)NCCCC[C@@H]1NC(=O)[C@H](C(C)C)NC(=O)[C@H](CC2CCCCC2)NC(=O)[C@H](CCN)NC(=O)[C@@H](CC(C)C)NC(=O)[C@H](C)N(C)C(=O)[C@H](C(C)C)NC(=O)[C@H](Cc2ccc(-c3ccccc3)cc2)NC(=O)[C@H](C(C)C)NC(=O)[C@H](Cc2cccc(C)c2)NC(=O)[C@H](CC(=O)O)NC(=O)[C@H](Cc2ccc(OCC(=O)O)cc2)NC(=O)[C@H](C(C)O)NC(=O)CSC[C@@H](C(=O)N(C)CC(=O)NCCOCCOCC(=O)NCCCCCCCCCCC(=O)O)NC1=O (stereo partly drawn) [Example 2304] ({CH2CO}-[Thr(3ξ)]Y(Carboxymethyl)D[Phe(3-Me)]V[Bip]V[NMeA][dL][Dab][Cha]VK(Ac)C[Sar][AEEA][Aun]-OH; thioether N-14) — 0.61 log units higher, 7.50
- Cc1cccc(C[C@@H]2NC(=O)[C@H](CC(=O)O)NC(=O)[C@H](Cc3ccc(OCC(=O)O)cc3)NC(=O)[C@H](C(C)O)NC(=O)CSC[C@@H](C(=O)N(C)[C@@H](CC(N)=O)C(=O)NCCOCCOCC(=O)NCCCCCCCCCCC(=O)O)NC(=O)[C@H](CCCNC(N)=O)NC(=O)[C@H](C(C)C)NC(=O)[C@H](CC3CCCCC3)NC(=O)[C@H](CCN)NC(=O)[C@@H](CC(C)C)NC(=O)[C@H](C)N(C)C(=O)[C@H](C(C)C)NC(=O)[C@H](Cc3ccc(-c4ccccc4)cc3)NC(=O)[C@H](C(C)C)NC2=O)c1 (stereo partly drawn) [Example 2305] ({CH2CO}-[Thr(3ξ)]Y(Carboxymethyl)D[Phe(3-Me)]V[Bip]V[NMeA][dL][Dab][Cha]V[Cit]C[NMeN][AEEA][Aun]-OH; thioether N-14) — 0.81 log units higher, 7.70
- Cc1cccc(C[C@@H]2NC(=O)[C@H](CC(=O)O)NC(=O)[C@H](Cc3ccc(OCC(=O)O)cc3)NC(=O)[C@H](CCCNC(=N)N)NC(=O)CSC[C@@H](C(=O)N[C@@H](CCN)C(=O)NCCCCCCCCCCC(=O)O)NC(=O)[C@H](C(C)O)NC(=O)[C@H](C(C)C)NC(=O)[C@H](CC3CCCCC3)NC(=O)[C@H](CCN)NC(=O)[C@@H](CC(C)C)NC(=O)[C@H](C)N(C)C(=O)[C@H](Cc3ccc(OCC(=O)O)cc3)NC(=O)[C@H](Cc3ccc(-c4ccccc4)cc3)NC(=O)[C@H](CCC(=O)O)NC2=O)c1 (stereo partly drawn) [Example 2306] ({CH2CO}-RY(Carboxymethyl)D[Phe(3-Me)]E[Bip]Y(Carboxymethyl)[NMeA][dL][Dab][Cha]V[Thr(3ξ)]C[Dab][Aun]-OH; thioether N-14) — 0.95 log units higher, 7.84
- Cc1cccc(C[C@@H]2NC(=O)[C@H](CC(=O)O)NC(=O)[C@H](Cc3ccc(OCC(=O)O)cc3)NC(=O)[C@H](CCCNC(=N)N)NC(=O)CSC[C@@H](C(=O)N[C@@H](CCN)C(=O)NCCCCCCCCCCC(=O)O)NC(=O)[C@H](C(C)O)NC(=O)[C@H](C(C)C)NC(=O)[C@H](CC3CCCCC3)NC(=O)[C@H](CCN)NC(=O)[C@@H](CC(C)C)NC(=O)[C@H](C)N(C)C(=O)[C@H](Cc3ccc(OCC(=O)O)cc3)NC(=O)[C@H](Cc3ccc(-c4ccccc4)cc3)NC(=O)[C@H](Cc3ccc(OCC(=O)O)cc3)NC2=O)c1 (stereo partly drawn) [Example 2307] ({CH2CO}-RY(Carboxymethyl)D[Phe(3-Me)]Y(Carboxymethyl)[Bip]Y(Carboxymethyl)[NMeA][dL][Dab][Cha]V[Thr(3ξ)]C[Dab][Aun]-OH; thioether N-14) — 0.97 log units higher, 7.86
- Cc1cccc(C[C@@H]2NC(=O)[C@H](CC(=O)O)NC(=O)[C@H](Cc3ccc(OCC(=O)O)cc3)NC(=O)[C@H](CCCNC(=N)N)NC(=O)CSC[C@@H](C(=O)N[C@@H](CCN)C(=O)NCCCCCCCCCCC(=O)O)NC(=O)[C@H](C(C)O)NC(=O)[C@H](C(C)C)NC(=O)[C@H](CC3CCCCC3)NC(=O)[C@H](CCN)NC(=O)[C@@H](CC(C)C)NC(=O)[C@H](C)N(C)C(=O)[C@H](Cc3ccc(OCC(=O)O)cc3)NC(=O)[C@H](Cc3ccc(-c4ccccc4)cc3)NC(=O)[C@H](C(C)C)NC2=O)c1 (stereo partly drawn) [Example 2308] ({CH2CO}-RY(Carboxymethyl)D[Phe(3-Me)]V[Bip]Y(Carboxymethyl)[NMeA][dL][Dab][Cha]V[Thr(3ξ)]C[Dab][Aun]-OH; thioether N-14) — 0.79 log units higher, 7.68
- Cc1cccc(C[C@@H]2NC(=O)[C@H](CC(=O)O)NC(=O)[C@H](Cc3ccc(OCC(=O)O)cc3)NC(=O)[C@H](C(C)O)NC(=O)CSC[C@@H](C(=O)N[C@@H](CCN)C(=O)NCCCCCCCCCCC(=O)O)NC(=O)[C@H](C(C)O)NC(=O)[C@H](C(C)C)NC(=O)[C@H](CC3CCCCC3)NC(=O)[C@H](CCN)NC(=O)[C@@H](CC(C)C)NC(=O)[C@H](C)N(C)C(=O)[C@H](Cc3ccc(OCC(=O)O)cc3)NC(=O)[C@H](Cc3ccc(-c4ccccc4)cc3)NC(=O)[C@H](C(C)C)NC2=O)c1 (stereo partly drawn) [Example 2309] ({CH2CO}-[Thr(3ξ)]Y(Carboxymethyl)D[Phe(3-Me)]V[Bip]Y(Carboxymethyl)[NMeA][dL][Dab][Cha]V[Thr(3ξ)]C[Dab][Aun]-OH; thioether N-14) — 0.66 log units higher, 7.55
- Cc1cccc(C[C@@H]2NC(=O)[C@H](CC(=O)O)NC(=O)[C@H](Cc3ccc(OCC(=O)O)cc3)NC(=O)[C@H](C(C)O)NC(=O)CSC[C@@H](C(=O)N[C@@H](CCN)C(=O)NCCCCCCCCCCC(=O)O)NC(=O)[C@H](C(C)O)NC(=O)[C@H](C(C)C)NC(=O)[C@H](CC3CCCCC3)NC(=O)[C@H](CCN)NC(=O)[C@@H](CC(C)C)NC(=O)[C@H](C)N(C)C(=O)[C@H](Cc3ccc(OCC(=O)O)cc3)NC(=O)[C@H](Cc3ccc(-c4ccccc4)cc3)NC(=O)[C@H](Cc3ccc(OCC(=O)O)cc3)NC2=O)c1 (stereo partly drawn) [Example 2310] ({CH2CO}-[Thr(3ξ)]Y(Carboxymethyl)D[Phe(3-Me)]Y(Carboxymethyl)[Bip]Y(Carboxymethyl)[NMeA][dL][Dab][Cha]V[Thr(3ξ)]C[Dab][Aun]-OH; thioether N-14) — 1.03 log units higher, 7.92
- Cc1cccc(C[C@@H]2NC(=O)[C@H](CC(=O)O)NC(=O)[C@H](Cc3ccc(OCC(=O)O)cc3)NC(=O)[C@H](C(C)O)NC(=O)CSC[C@@H](C(=O)N[C@@H](CCN)C(=O)NCCCCCCCCCCC(=O)O)NC(=O)[C@H](C(C)O)NC(=O)[C@H](C(C)C)NC(=O)[C@H](CC3CCCCC3)NC(=O)[C@H](CCN)NC(=O)[C@@H](CC(C)C)NC(=O)[C@H](C)N(C)C(=O)[C@H](Cc3ccc(C(=O)O)cc3)NC(=O)[C@H](Cc3ccc(-c4ccccc4)cc3)NC(=O)[C@H](Cc3ccc(C(=O)O)cc3)NC2=O)c1 (stereo partly drawn) [Example 2311] ({CH2CO}-[Thr(3ξ)]Y(Carboxymethyl)D[Phe(3-Me)][Phe(4-COOH)][Bip][Phe(4-COOH)][NMeA][dL][Dab][Cha]V[Thr(3ξ)]C[Dab][Aun]-OH; thioether N-14) — 0.78 log units higher, 7.67
